What all share (format): cell-based
The subject of experiment [1] is Human umbilical artery endothelial cells (HUAECs). The experiment in a line: HUAECs heparin release study, vWF immunostaining. The settings on record: 48 h, p<0.05. The method, then: HUVECs were seeded in 96-well plates at a density of 3,500 cells/well in 235 μL of Medium 200 (with LSGS). Cells were left overnight to adhere before medium was replaced with 200 μL of treatment medium, which contained 0.1, 1, 10, 100, or 1000 μg/mL heparin in Medium 200 (with LSGS), while the control was medium only. The medium was replaced daily for the duration of this study. Cells were fixed with 10% formalin and permeabilized. Wells were treated overnight with anti-von Willebrand factor antibody (1:200, 100 μL, ab9378, Abcam, Cambridge, Mass.). The secondary antibody used was Alexa Fluor 633 (4 μg/mL, Invitrogen, Carlsbad, Calif.). Then the cells were stained with DAPI solution (3 μg/mL in PBS) for 10 min. […] MATLAB was used to quantify the intensity of the red channel and count the cells in the blue channel for 3 images of each of the 3 wells (n=9) to calculate a ratio of vWF intensity to number of cells.
(§1) Human umbilical artery endothelial cells (HUAECs) (Sigma-Aldrich) were seeded in MesoEndo Cell Growth Medium (Sigma-Aldrich) with the appropriate heparin treatment. […] Immunostaining and quantification was completed as described above at 48 h. Tissue factor pathway inhibitor (TFPI) was quantified with DuoSet ELISA kit (R&D Systems, Minneapolis, Minn.) according to the manufacturer's protocol. […]

Experiment [2] has as its system Human umbilical vein endothelial cells (HUVECs). The experiment in a line: vWF immunostaining, HUVECs. The settings on record: higher heparin concentrations; up to 120 h. The method, then:
HUVECs were seeded in 96-well plates at a density of 3,500 cells/well in 235 μL of Medium 200 (with LSGS). Cells were left overnight to adhere before medium was replaced with 200 μL of treatment medium, which contained 0.1, 1, 10, 100, or 1000 μg/mL heparin in Medium 200 (with LSGS), while the control was medium only. The medium was replaced daily for the duration of this study. Cells were fixed with 10% formalin and permeabilized. Wells were treated overnight with anti-von Willebrand factor antibody (1:200, 100 μL, ab9378, Abcam, Cambridge, Mass.). The secondary antibody used was Alexa Fluor 633 (4 μg/mL, Invitrogen, Carlsbad, Calif.). Then the cells were stained with DAPI solution (3 μg/mL in PBS) for 10 min. Wells were imaged with an Eclipse Ti2 microscope (Nikon, Tokyo, Japan) under Cy5 excitation (625-650 nm) and emission (670 nm) and DAPI excitation (340-380 nm) and emission (435-485 nm). MATLAB was used to quantify the intensity of the red channel and count the cells in the blue channel for 3 images of each of the 3 wells (n=9) to calculate a ratio of vWF intensity to number of cells.

The test system is the same in experiment [3]. The experiment in a line: Actin immunostaining / adhesion, HUVECs. The settings on record: 72 h treatment. How it is done:
(§2) HUVECs were treated in culture with treatment medium for 72 h. Treatment medium contained 0.1, 1, 10, 100, or 1000 μg/mL heparin in Medium 200 (with LSGS), while the control was medium only. The medium was replaced daily for the duration of this study. Cells were seeded in 96-well plate at a density of 30,000 cells/well in 200 μL of Medium 200 (with LSGS). Cells were left to adhere for 2 h before the medium was removed. Cells were fixed with 10% formalin and permeabilized. Wells were stained for 1 h with Alexa Fluor 488 Phalloidin (1:100, 100 μL, A12379, Invitrogen). Then the cells were stained with DAPI solution (3 μg/mL in PBS) for 10 min. Wells were imaged with an Eclipse Ti2 microscope under FITC excitation (465-495 nm) and emission (515-555 nm) and DAPI excitation (340-380 nm) and emission (435-485 nm). MATLAB was used to quantify the area of the green channel and count the cells in the blue channel for 3 images of each of the 3 wells (n=9) to calculate a ratio of F-actin area to number of cells.

In experiment [4] the test system is Human umbilical artery endothelial cells (HUAECs). The experiment in a line: HUAECs heparin release study, phalloidin (F-actin) staining. The settings on record: heparin profiles A, B, C; 48 h; p>0.05. The method, then:
as §2, §1

Experiment [5] deals with Human umbilical vein endothelial cells (HUVECs). The experiment in a line: Cell metabolic activity assay (XTT), HUVECs. The settings on record: 100 and 1000 μg/mL heparin; 24, 72 and 120 h; p<0.05. The method, then: (§3) Human umbilical vein endothelial cells (HUVECs) (ThermoFisher Scientific, Waltham, Mass.) were seeded in 48-well plates at a density of 10,000 cells/well in 1 mL of Medium 200 (with manufacturer's required Low Serum Growth Supplement LSGS, ThermoFisher Scientific). Cells were left overnight to adhere before medium was replaced with 1 mL of treatment medium, which contained 0.1, 1, 10, 100, or 1000 μg/mL heparin in Medium 200 (with LSGS), while the control was medium only. The medium was replaced daily for the duration of this study. The electron coupling and XTT labeling reagents from the Cell Proliferation Kit II (XTT) (Roche, Mannheim, Germany) were mixed according to the manufacturer's protocol and added to the cell medium in a ratio of 1 to 2. Cell medium was removed from the wells and the XTT solution was added. It was incubated for 4 h and 100 μL was extracted in triplicate (n=9). The absorbance was measured with a Spark Multimode Microplate Reader (Tecan, Männedorf, Switzerland). Net absorbance was calculated (A475-A650) for each sample and XTT fold change was calculated by normalizing the net absorbance to that at 4 h.

Experiment [6] has as its system Human umbilical artery endothelial cells (HUAECs). The experiment in a line: HUAECs heparin release study, TFPI ELISA. The conditions noted are these: for release of TFPI: after 48 h, comparable to 0 μg/mL, more than profiles A and B. How it is done: Human umbilical artery endothelial cells (HUAECs) (Sigma-Aldrich) were seeded in MesoEndo Cell Growth Medium (Sigma-Aldrich) with the appropriate heparin treatment. For XTT and TFPI ELISA measurements, cells were seeded in a 24-well plate at a density of 150,000 cells/well in 1.8 mL of medium, while for immunostaining, cells were seeded in a 96-well plate at a density of 25,000 cells/well in 300 µL of medium. Treatment medium contained the heparin concentrations detailed in Table 1. One control group was medium only, while the other control group contained 30 μg/mL heparin, an estimate of heparin concentration during surgery. The medium was replaced at 8, 24, and 48 h. XTT was conducted as described above at 24 and 48 h. Immunostaining and quantification was completed as described above at 48 h. Tissue factor pathway inhibitor (TFPI) was quantified with DuoSet ELISA kit (R&D Systems, Minneapolis, Minn.) according to the manufacturer's protocol. The ladder and all samples were run in triplicate (n=9).
On the technique in general: ELISA stands for enzyme-linked immunosorbent assay.

Experiment [7] has as its system Human umbilical vein endothelial cells (HUVECs). The experiment in a line: Scratch assay, HUVECs. The conditions noted are these: p<0.05. How it is done: HUVECs were treated in culture with treatment medium for 48 h. Treatment medium contained 0.1, 1, 10, 100, or 1000 μg/mL heparin in Medium 200 (with LSGS), while the control was medium only. The medium was replaced daily for the duration of this study. A 48-well plate was treated for 45 min with 200 μL of 0.1% wt/vol porcine gelatin (Sigma-Aldrich, St. Louis, Mo.) in DI water at 37° C. Cells were seeded in the well plate at a density of 100,000 cells/well in 800 μL of Medium 200 (with LSGS). Cells were left to adhere for 24 h before the medium was replaced. Scratches were made with a 200 μL pipette tip. Cells were imaged for 1 to 16 h after the scratches were made. ImageJ was used to quantify the gap distance in one image for each well (n=6). Gap closure (%) was reported as
where lo is the original gap length and lt is the gap length at a given time. The gap closure speed was defined as the slope of gap length curve with respect to time and was normalized to that of the 0 μg/mL group.

In experiment [8] the test system is Human umbilical artery endothelial cells (HUAECs). The experiment in a line: HUAECs heparin release study, XTT. How it is done: as §3, with “Cell medium was removed from the wells and the XTT solution was added. It was incubated for 4 h and 100 μL was extracted in triplicate (n=9).” left out
as §1
(In general: Formazan colour is commonly taken as a measure of viable cells.)

Consider heparin, for which the “vWF intensity, profile A versus profile C” value in experiment [1] was “higher”. For the same substance, the “vWF expression (ratio of vWF intensity to number of cells)” value in experiment [2] was “upward trend”. In addition, in experiment [3] (1000 μg/mL heparin, p<0.05), the “number of cells adhered after 2 h, compared to 0 μg/mL” value is recorded as “significantly lower” and the “ratio of F-actin area to number of cells, compared to 0 μg/mL” value is listed as “significantly lower”. For the same substance, in experiment [3] (0.1 and 1 μg/mL heparin), the “number of cells adhered after 2 h” value is “support” and the “ratio of F-actin area to number of cells” value is “support”. For the same substance, the “phalloidin (F-actin) area ratio” value in experiment [4] is reported as “not impacted”. Besides, the “XTT metabolic activity compared to 0 μg/mL heparin” value in experiment [5] is listed as “significantly decreased”. For the same substance, the “release of TFPI” value in experiment [6] (30 μg/mL heparin) is “highest release of TFPI”. Besides, the “tissue factor pathway inhibitor (TFPI) produced” value in experiment [6] (heparin profile A, after 24 and 48 h, p<0.05) is on record as “significantly less”. Further, the “release of TFPI” value in experiment [6] (heparin profile C) was “highest release of TFPI”. Besides, in experiment [7] (1, 10, 100 and 1000 μg/mL heparin), the “gap closure over 16 h” value is listed as “significantly decreases”. Besides, the “gap closure speed (normalized to 0 μg/mL)” value in experiment [7] (10, 100 and 1000 μg/mL heparin) was “significantly decreases”. The “XTT metabolic activity of HUAECs at 48 h (normalized to 0 μg/mL)” value in experiment [8] (heparin profile A (246/122/118 μg/mL at 0-8/8-24/24-48 h)) was “reduces”. Also, the “XTT metabolic activity and vWF expression of HUAECs” value in experiment [8] (slower heparin profiles B and C) is “unaffected”.

The values are drawn from patent US20230082358A1, “3D PRINTED UV CROSSLINKING MASKS” (University of Maryland, College Park, priority 2021, published 2023).
